Experimental findings from ChEMBL document CHEMBL1131863, “Synthesis and antibacterial activity of HMR 3647 a new ketolide highly potent against erythromycin-resistant and susceptible pathogens” (1999) are described below.

Assay type in all cases: functional
Assay [1] deals with Escherichia coli. Description: The compound was tested in vitro for antibacterial activity against Escherichia coli 250 UCS.
The subject of assay [2] is Haemophilus influenzae. Description: The compound was tested in vitro for antibacterial activity against Haemophilus influenza 351HT3.
The test system of assay [3] is Staphylococcus aureus. In words: The compound was tested in vitro for antibacterial activity against erythromycin susceptible Staphylococcus aureus 011UC4.
Assay [4] concerns Staphylococcus aureus. In words: The compound was tested in vitro for antibacterial activity against inducibly erythromycin resistant Staphylococcus aureus 011GO25i.
The subject of assay [5] is Streptococcus pneumoniae. In words: The compound was tested in vitro for antibacterial activity against constitutively erythromycin resistant Streptococcus pneumoniae 030CR18c.
The test system of assay [6] is Streptococcus pneumoniae. In words: The compound was tested in vitro for antibacterial activity against constitutively erythromycin resistant Streptococcus pneumoniae 030PW23c.
The subject of assay [7] is Streptococcus pneumoniae. Description: The compound was tested in vitro for antibacterial activity against constitutively erythromycin resistant Streptococcus pneumoniae 030SJ1.
For assay [8], the system named is Streptococcus pneumoniae. In words: The compound was tested in vitro for antibacterial activity against erythromycin susceptible Streptococcus pneumoniae 032UC1.
The test system of assay [9] is Staphylococcus aureus. Description: The compound was tested in vitro for antibacterial activity against constitutively erythromycin resistant Staphylococcus aureus 011CB20.
Assay [10] relates to Streptococcus pyogenes. In words: The compound was tested in vitro for antibacterial activity against erythromycin susceptible Streptococcus pyogenes 02A1UC1.
Assay [11] relates to Streptococcus pneumoniae. In words: The compound was tested in vitro for antibacterial activity against inducibly erythromycin resistant Streptococcus pneumoniae 030J5i.
Assay [12] concerns Escherichia coli. Description: The compound was tested in vitro for antibacterial activity against Escherichia coli 250 UCS.
The subject of assay [13] is Mus musculus. In words: The compound was tested in vivo for antibacterial activity against AmpR beta(+) Haemophilus influenza 351RD7 in mice after oral administration.
The subject of assay [14] is Mus musculus. In words: The compound was tested in vivo for antibacterial activity against AmpR beta(-) Haemophilus influenza 351TO19 in mice after oral administration.
In assay [15] the test system is Mus musculus. In words: The compound was tested in vivo for antibacterial activity against Haemophilus influenza 351GR1 in mice after oral administration.
Assay [16] relates to Haemophilus influenzae. In words: The compound was tested in vitro for antibacterial activity against Haemophilus influenza 351HT3.
In assay [17] the test system is Mus musculus. Description: The compound was tested in vivo for antibacterial activity against constitutively erythromycin resistant Streptococcus pneumoniae 030Cr29 in mice after oral administration.
In assay [18] the test system is Mus musculus. In words: The compound was tested in vivo for antibacterial activity against constitutively erythromycin resistant Streptococcus pneumoniae 030MV2 in mice after oral administration.
Assay [19] deals with Mus musculus. In words: The compound was tested in vivo for antibacterial activity against constitutively erythromycin resistant Streptococcus pneumoniae 030SJ1 in mice after oral administration.
The subject of assay [20] is Mus musculus. In words: The compound was tested in vivo for antibacterial activity against erythromycin susceptible Staphylococcus aureus 011UC4 in mice after oral administration.
The subject of assay [21] is Mus musculus. In words: The compound was tested in vivo for antibacterial activity against erythromycin susceptible Streptococcus pneumoniae 032UC1 in mice after oral administration.
The subject of assay [22] is Mus musculus. Description: The compound was tested in vivo for antibacterial activity against erythromycin susceptible Streptococcus pyogenes 02A1UC1 in mice after oral administration.
The test system of assay [23] is Mus musculus. In words: The compound was tested in vivo for antibacterial activity against inducibly erythromycin resistant Staphylococcus aureus 011GO3 in mice after oral administration.
Assay [24] relates to Mus musculus. Description: The compound was tested in vivo for antibacterial activity against inducibly erythromycin resistant Streptococcus pneumoniae 030RO1 in mice after oral administration.
The subject of assay [25] is Staphylococcus aureus. Description: The compound was tested in vitro for antibacterial activity against erythromycin susceptible Staphylococcus aureus 011UC4.
Assay [26] concerns Staphylococcus aureus. Description: The compound was tested in vitro for antibacterial activity against inducibly erythromycin resistant Staphylococcus aureus 011GO25i.
In assay [27] the test system is Streptococcus pneumoniae. In words: The compound was tested in vitro for antibacterial activity against constitutively erythromycin resistant Streptococcus pneumoniae 030CR18c.
Assay [28] has as its system Streptococcus pneumoniae. Description: The compound was tested in vitro for antibacterial activity against constitutively erythromycin resistant Streptococcus pneumoniae 030PW23c.
Assay [29] relates to Streptococcus pneumoniae. Description: The compound was tested in vitro for antibacterial activity against constitutively erythromycin resistant Streptococcus pneumoniae 030SJ1.
The test system of assay [30] is Streptococcus pyogenes. In words: The compound was tested in vitro for antibacterial activity against erythromycin susceptible Streptococcus pyogenes 02A1UC1.
The test system of assay [31] is Staphylococcus aureus. Description: The compound was tested in vitro for antibacterial activity against constitutively erythromycin resistant Staphylococcus aureus 011CB20.
Assay [32] has as its system Streptococcus pneumoniae. In words: The compound was tested in vitro for antibacterial activity against inducibly erythromycin resistant Streptococcus pneumoniae 030J5i.
Assay [33] concerns Streptococcus pneumoniae. In words: The compound was tested in vitro for antibacterial activity against erythromycin susceptible Streptococcus pneumoniae 032UC1.
For assay [34], the system named is Mus musculus. Description: The compound was tested in vivo for antibacterial activity against constitutively erythromycin resistant Streptococcus pneumoniae 030SJ6 in mice after oral administration.

SMILES strings stand for the structures. In brackets after ≈: the same amount, converted by molar mass. Bounds are passed on as bounds.

`CC[C@H]1OC(=O)[C@H](C)C(=O)[C@H](C)[C@@H](O[C@@H]2O[C@H](C)C[C@H](N(C)C)[C@H]2O)[C@](C)(OC)C[C@@H](C)C(=O)[C@H](C)[C@H]2N(CCCCn3ccc4ccccc43)C(=O)O[C@]12C`: the MIC against Escherichia coli [1] was 10 µg/mL (≈ 12.8 µM); with Haemophilus influenzae [2], 0.6 µg/mL (≈ 0.765 µM); with Staphylococcus aureus [3], 0.04 µg/mL (≈ 0.051 µM); in the assay with Staphylococcus aureus [4], 0.08 µg/mL (≈ 0.102 µM); with Streptococcus pneumoniae [5], 2.5 µg/mL (≈ 3.19 µM); against Streptococcus pneumoniae [6], 2.5 µg/mL (≈ 3.19 µM). Also, the MIC against Streptococcus pneumoniae [7] stood at 2.5 µg/mL (≈ 3.19 µM); against Streptococcus pneumoniae [8] it was 0.02 µg/mL (≈ 0.0255 µM); against Staphylococcus aureus [9], 40 µg/mL (≈ 51 µM); against Streptococcus pyogenes [10], 0.02 µg/mL (≈ 0.0255 µM); against Streptococcus pneumoniae [11] it was 0.08 µg/mL (≈ 0.102 µM).
With `CC[C@H]1OC(=O)[C@H](C)C(=O)[C@H](C)[C@@H](O[C@@H]2O[C@H](C)C[C@H](N(C)C)[C@H]2O)[C@](C)(OC)C[C@@H](C)C(=O)[C@H](C)[C@H]2N(CCCCn3cnc(-c4ccccc4)c3)C(=O)O[C@]12C`, the MIC stood at 40 µg/mL (≈ 49.3 µM) in the assay on Escherichia coli [1]; 2.5 µg/mL (≈ 3.08 µM) with Haemophilus influenzae [2]; 0.08 µg/mL (≈ 0.0986 µM) against Staphylococcus aureus [3]; 0.3 µg/mL (≈ 0.37 µM) against Staphylococcus aureus [4]; 1.2 µg/mL (≈ 1.48 µM) in the assay with Streptococcus pneumoniae [5]; 20 µg/mL (≈ 24.7 µM) against Streptococcus pneumoniae [6]. Also, the MIC against Streptococcus pneumoniae [7] was determined as 2.5 µg/mL (≈ 3.08 µM); against Streptococcus pneumoniae [8] it was 0.02 µg/mL (≈ 0.0247 µM); against Staphylococcus aureus [9], 40 µg/mL (≈ 49.3 µM); with Streptococcus pyogenes [10], 0.02 µg/mL (≈ 0.0247 µM); with Streptococcus pneumoniae [11] it was 2.5 µg/mL (≈ 3.08 µM).
In general, ED50 refers to the dose at which the effect has come halfway, by size or by number of responders. Low values mean an effect at a small dose, high ones a need for a large dose. Regarding `CC[C@H]1OC(=O)[C@H](C)[C@@H](O[C@H]2C[C@@](C)(OC)[C@@H](O)[C@H](C)O2)[C@H](C)[C@@H](O[C@@H]2O[C@H](C)C[C@H](N(C)C)[C@H]2O)[C@](C)(O)C[C@@H](C)CN(C)[C@H](C)[C@@H](O)[C@]1(C)O` [AZITHROMYCIN], the MIC in the assay with Escherichia coli [12] was determined as 20 µg/mL (≈ 26.7 µM); in the assay with Haemophilus influenzae [16] it was 1.2 µg/mL (≈ 1.6 µM); in the assay on Staphylococcus aureus [25], 0.3 µg/mL (≈ 0.401 µM); in the assay on Staphylococcus aureus [26], 40 µg/mL (≈ 53.4 µM); against Streptococcus pneumoniae [27], 40 µg/mL (≈ 53.4 µM); in the assay on Streptococcus pneumoniae [28], 40 µg/mL (≈ 53.4 µM). Further, the MIC with Streptococcus pneumoniae [29] is 40 µg/mL (≈ 53.4 µM); in the assay on Streptococcus pyogenes [30], 0.6 µg/mL (≈ 0.801 µM); against Staphylococcus aureus [31], 40 µg/mL (≈ 53.4 µM); against Streptococcus pneumoniae [32], 40 µg/mL (≈ 53.4 µM); in the assay on Streptococcus pneumoniae [33], 0.15 µg/mL (≈ 0.2 µM). In addition, the ED50 was 94 mg/kg in the assay with Mus musculus [13]; 145 mg/kg in the assay on Mus musculus [14]; 56 mg/kg in the assay with Mus musculus [15]; > 50 mg/kg in the assay on Mus musculus [17]; > 50 mg/kg in the assay on Mus musculus [18]; > 50 mg/kg in the assay with Mus musculus [19]. The ED50 was 30 mg/kg in the assay on Mus musculus [20]; 6 mg/kg in the assay on Mus musculus [21]; 16 mg/kg with Mus musculus [22]; > 100 mg/kg with Mus musculus [23]; > 50 mg/kg in the assay on Mus musculus [24].
Consider `CC[C@H]1OC(=O)[C@H](C)C(=O)[C@H](C)[C@@H](O[C@@H]2O[C@H](C)C[C@H](N(C)C)[C@H]2O)[C@](C)(OC)C[C@@H](C)C(=O)[C@H](C)[C@H]2N(CCCCn3cnc(-c4cccnc4)c3)C(=O)O[C@]12C` [TELITHROMYCIN], for which the MIC against Escherichia coli [1] is 10 µg/mL (≈ 12.3 µM); in the assay on Haemophilus influenzae [2], 1.2 µg/mL (≈ 1.48 µM); in the assay on Staphylococcus aureus [3], 0.04 µg/mL (≈ 0.0493 µM); against Staphylococcus aureus [4] it was 0.08 µg/mL (≈ 0.0985 µM); with Streptococcus pneumoniae [5], 0.15 µg/mL (≈ 0.185 µM); in the assay with Streptococcus pneumoniae [6], 0.08 µg/mL (≈ 0.0985 µM). The MIC in the assay on Streptococcus pneumoniae [7] amounted to 0.08 µg/mL (≈ 0.0985 µM); in the assay with Streptococcus pneumoniae [8], 0.02 µg/mL (≈ 0.0246 µM); in the assay with Staphylococcus aureus [9], 40 µg/mL (≈ 49.3 µM); in the assay with Streptococcus pyogenes [10], 0.02 µg/mL (≈ 0.0246 µM); in the assay on Streptococcus pneumoniae [11] it was 0.02 µg/mL (≈ 0.0246 µM). For the same compound, the ED50 came out at 57 mg/kg in the assay with Mus musculus [13]; 40 mg/kg in the assay on Mus musculus [14]; 68 mg/kg in the assay on Mus musculus [15]; 4.5 mg/kg with Mus musculus [17]; 4 mg/kg with Mus musculus [18]; 15 mg/kg in the assay on Mus musculus [19]. For the same compound, the ED50 was 6.5 mg/kg in the assay on Mus musculus [34]; 10 mg/kg with Mus musculus [20]; 1 mg/kg with Mus musculus [21]; 16 mg/kg in the assay with Mus musculus [22]; 4 mg/kg in the assay on Mus musculus [24].
